Measured values published in BindingDB's records for doi:10.1016/j.bmcl.2021.128376 (Bristol Myers Squibb Research and Development, 2021).

Test: Inhibition of c-MYC (unknown origin)
`[2H]C([2H])([2H])c1nnn(C)c1-c1cc2c(cc1F)c1ncc(C(C)(C)O)cc1n2[C@H](c1ncccc1F)C1CCOCC1` gave an IC50 of 1.3 nM.
With `[2H]C([2H])([2H])c1nnn(C)c1-c1cc2c(cc1F)c1ncc(C(C)(C)O)cc1n2[C@H](c1cc(C)on1)C1CCOCC1` the IC50 was 2.4 nM.
`[2H]C([2H])([2H])c1nnn(C)c1-c1cc2c(cc1F)c1ncc(C(C)(C)O)cc1n2[C@@H](CCC)c1ncccc1F` showed an IC50 of 0.7 nM.
`Cc1nnn(C)c1-c1cc2c(cn1)c1ncc(C(C)(C)O)cc1n2[C@H](c1ccccc1)C1CCOCC1` [US9725449, Example 364] showed an IC50 of 6.9 nM.
Work on `Cc1nnn(C)c1-c1cnc2c3ccc(C(C)(C)O)cc3n([C@H](c3ccccc3)C3CCOCC3)c2c1` [US10112941, Example 54] yielded an IC50 of 0.7 nM.
Work on `Cc1nnn(C)c1-c1cc(F)c2c3ncc(C(C)(C)O)cc3n([C@H](c3ccccc3)C3CCOCC3)c2c1` [US10683290, Example 11] yielded an IC50 of 3.4 nM.
For `Cc1nnn(C)c1-c1ccc2c3ncc(C(C)(C)O)cc3n([C@H](c3ccccc3)C3CCOCC3)c2c1` [US10683290, Example 16], the IC50 was 0.2 nM.
`Cc1nnn(C)c1-c1cc2c(cc1F)c1ncc(C(C)(C)O)cc1n2[C@H](c1ccccc1)C1CCOCC1` [US10683290, Example 19] gave an IC50 of 0.8 nM.
For `Cc1nnn(C)c1-c1ccc2c3ncc(C(C)(C)O)cc3n([C@H](c3ccccc3)C3CCOCC3)c2c1F` [US10683290, Example 20], the IC50 was 0.6 nM.
Compound `Cc1nnn(C)c1-c1cc2c(cc1Cl)c1ncc(C(C)(C)O)cc1n2[C@H](c1ccccc1)C1CCOCC1` [US10683290, Example 77] has an IC50 of 42 nM.
